In general, IC50 refers to the concentration needed to halve the response being measured.

Molecules are shown by their SMILES. Read-outs that look alike come from different tables or passages of the source.

Experimental findings from patent US12037345B2, “Heterobicyclic compounds for inhibiting the activity of SHP2” (TAIHO PHARMACEUTICAL CO., LTD., priority 2018, dated 2024) are described below.

The target of one experiment is SHP2 (Homo sapiens (Human), UniProt Q06124). In words: SHP2 Biochemical Assay (DiFMUP conversion, pIRS1-activated). A digest of the protocol: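 Human SHP2 (10 pM) pre-incubated 30 min with compound and […] pIRS1 activating peptide, then 50 μM DiFMUP added; buffer 25 mM Bis-Tris propane pH 7.0, 150 mM NaCl, 5% DMSO. Fluorescence rate (ex 360/em 450 nm) over 30 min; IC50 by four-parameter fit, averaged across experiments.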
SHP2, sequence (Q06124 whole entry): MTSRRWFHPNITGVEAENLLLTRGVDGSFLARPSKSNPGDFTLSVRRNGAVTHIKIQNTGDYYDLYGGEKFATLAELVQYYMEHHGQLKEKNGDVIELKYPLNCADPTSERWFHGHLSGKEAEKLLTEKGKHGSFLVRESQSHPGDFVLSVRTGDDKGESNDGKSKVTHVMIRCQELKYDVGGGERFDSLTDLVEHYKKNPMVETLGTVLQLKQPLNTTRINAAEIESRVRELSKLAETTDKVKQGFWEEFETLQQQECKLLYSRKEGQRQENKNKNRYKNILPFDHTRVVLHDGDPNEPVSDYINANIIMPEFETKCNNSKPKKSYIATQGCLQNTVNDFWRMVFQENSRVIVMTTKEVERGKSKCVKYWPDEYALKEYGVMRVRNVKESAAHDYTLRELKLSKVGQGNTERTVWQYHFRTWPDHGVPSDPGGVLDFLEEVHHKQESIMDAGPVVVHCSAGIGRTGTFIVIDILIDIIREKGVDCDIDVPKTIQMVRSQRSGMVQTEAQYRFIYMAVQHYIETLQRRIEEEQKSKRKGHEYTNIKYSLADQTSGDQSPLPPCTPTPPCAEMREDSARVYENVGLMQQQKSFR

For experiment [1], the system named is pERK (phospho-p44/42 ERK) in HCC827 cells. In words: Cellular pERK Inhibition Assay, Method A (In-Cell Western). In kind it is cell-based. Conditions: Homo sapiens. The gist of the method: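 HCC827 cells in RPMI/10% FBS were treated with compounds in serum-free medium (0.2% DMSO final) at 37 °C for the indicated time, in quadruplicate. Fixed cells were immunostained for phospho-p44/42 ERK and read by infrared imaging. Blank-subtracted signal was expressed as % of DMSO control; IC50 from four-parameter logistic fit, averaged across experiments.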

Where [2] appears, read: Table 19, head prints unit as "-M".
[3] abbreviates: Table 19, head prints unit as "-M", read-out: pERK (IC50) Method A.
The mark [4] stands for this setting: Table 20, read-out: pERK (IC50, μM) Method A.

Regarding `Cn1cc2c(Cl)c(-c3c[nH]c4nc(N5CC6CC(C5)N6)n(C)c(=O)c34)ccc2n1` [Example 31, 2-(3,6-diazabicyclo[3.1.1]heptan-3-yl)-5-(4-chloro-2-methyl-2H-indazol-5-yl)-3-methyl-3,7-dihydro-4H-pyrrolo[2,3-d]pyrimidin-4-one], the IC50 against SHP2 (setting [2]) worked out at 40 nM; in experiment [1] (setting [3]), 1 µM.
Turning to `Cc1nc2ccc(-c3c[nH]c4nc(N5C6CCC5CNC6)n(C)c(=O)c34)c(Cl)c2s1` [Example 90, 2-(3,8-diazabicyclo[3.2.1]octan-8-yl)-5-(7-chloro-2-methylbenzo[d]thiazol-6-yl)-3-methyl-3,7-dihydro-4H-pyrrolo[2,3-d]pyrimidin-4-one], the results for the IC50 (against SHP2 (setting [2]); in experiment [1] (setting [3])) were 12 nM and 0.74 µM, respectively.
Turning to `C[C@@H]1OCC2(CCN(c3nc4[nH]cc(-c5ccc6nn(C)cc6c5Cl)c4c(=O)n3C)CC2)[C@@H]1N` [Example 59, 2-((3S,4S)-4-amino-3-methyl-2-oxa-8-azaspiro[4.5]decan-8-yl)-5-(4-chloro-2-methyl-2H-indazol-5-yl)-3-methyl-3,7-dihydro-4H-pyrrolo[2,3-d]pyrimidin-4-one], the IC50 was determined as 5.5 nM at SHP2 (setting [2]) and 0.048 µM in experiment [1] (setting [3]).
For `C[C@H]1CN(c2nc3[nH]cc(-c4ccc5nn(C)cc5c4Cl)c3c(=O)n2C)C[C@@H]1N` [Example 57, 2-((3R,4S)-3-amino-4-methylpyrrolidin-1-yl)-5-(4-chloro-2-methyl-2H-indazol-5-yl)-3-methyl-3,7-dihydro-4H-pyrrolo[2,3-d]pyrimidin-4-one], the values for the IC50 (at SHP2 (setting [2]); in experiment [1] (setting [3])) were 120 nM and 2.9 µM, respectively.
The like results for `Cn1c(N2[C@@H]3CC[C@H]2C[C@@H](N)C3)nc2[nH]cc(-c3ccc4nn(C(C)(C)C)cc4c3Cl)c2c1=O` [Example 9, 2-(endo-3-amino-8-azabicyclo[3.2.1]octan-8-yl)-5-(2-(tert-butyl)-4-chloro-2H-indazol-5-yl)-3-methyl-3,7-dihydro-4H-pyrrolo[2,3-d]pyrimidin-4-one] were, in that order, 94 nM and 1.2 µM.
The like results for `C[C@@H]1CNCCN1c1nc2[nH]cc(-c3ccc4nn(C)cc4c3Cl)c2c(=O)n1C` [Example 47, (R)-5-(4-chloro-2-methyl-2H-indazol-5-yl)-3-methyl-2-(2-methylpiperazin-1-yl)-3,7-dihydro-4H-pyrrolo[2,3-d]pyrimidin-4-one] were, in that order, 32 nM and 0.38 µM.
The like results for `Cc1nc2ccc(-c3c[nH]c4nc(N5[C@@H]6CC[C@H]5C[C@@H](N)C6)n(C)c(=O)c34)c(Cl)c2o1` [Example 68, 2-(endo-3-amino-8-azabicyclo[3.2.1]octan-8-yl)-5-(7-chloro-2-methylbenzo[d]oxazol-6-yl)-3-methyl-3,7-dihydro-4H-pyrrolo[2,3-d]pyrimidin-4-one] were, in that order, 41 nM and 0.67 µM.
Turning to `Cn1cc2c(Cl)c(-c3c[nH]c4nc(N5CC6CC6(N)C5)n(C)c(=O)c34)ccc2n1` (stereo not drawn) [Example 61, 2-(1-amino-3-azabicyclo[3.1.0]hexan-3-yl)-5-(4-chloro-2-methyl-2H-indazol-5-yl)-3-methyl-3,7-dihydro-4H-pyrrolo[2,3-d]pyrimidin-4-one], the IC50 against SHP2 (setting [2]) stood at 98 nM; in experiment [1] (setting [3]), 1.8 µM.
As to `Cn1nc2ccc(-c3c[nH]c4nc(N5C[C@H]6CC[C@@H]5[C@@H]6N)n(C)c(=O)c34)c(F)c2c1Cl` [Example 174, 2-((1R,4R,7R)-7-amino-2-azabicyclo[2.2.1]heptan-2-yl)-5-(3-chloro-4-fluoro-2-methyl-2H-indazol-5-yl)-3-methyl-3,7-dihydro-4H-pyrrolo[2,3-d]pyrimidin-4-one], the 50% inhibitory concentration (IC50) on SHP2 (Table 20) is 3 nM; in experiment [1] (setting [4]) it was 0.021 µM.
On to `CCn1cc2c(Cl)c(-c3c[nH]c4nc(N5[C@@H]6CC[C@H]5C[C@@H](NC)C6)n(C)c(=O)c34)ccc2n1` [Example 13, 5-(4-chloro-2-ethyl-2H-indazol-5-yl)-3-methyl-2-(endo-3-(methylamino)-8-azabicyclo[3.2.1]octan-8-yl)-3,7-dihydro-4H-pyrrolo[2,3-d]pyrimidin-4-one], for which the IC50 against SHP2 (setting [2]) came to 19 nM; in experiment [1] (setting [3]), 0.34 µM.
On to `Cn1nc2ccc(-c3n[nH]c4nc(N5CC[C@H](N)[C@H](F)C5)n(C)c(=O)c34)c(Cl)c2c1Cl` [Example 162, 6-((3R,4S)-4-amino-3-fluoropiperidin-1-yl)-3-(3,4-dichloro-2-methyl-2H-indazol-5-yl)-5-methyl-1,5-dihydro-1H-pyrazolo[3,4-d]pyrimidin-4-one], for which the IC50 was found to be 42 nM against SHP2 (Table 20) and 0.81 µM in experiment [1] (setting [4]).
On to `C[C@H]1CNCCN1c1nc2[nH]cc(-c3ccc4nn(C)cc4c3Cl)c2c(=O)n1C` [Example 48, (S)-5-(4-chloro-2-methyl-2H-indazol-5-yl)-3-methyl-2-(2-methylpiperazin-1-yl)-3,7-dihydro-4H-pyrrolo[2,3-d]pyrimidin-4-one], for which the IC50 at SHP2 (setting [2]) was 85 nM; in experiment [1] (setting [3]) it was 1 µM.
Consider `Cn1nc2ccc(-c3c[nH]c4nc(N5[C@H]6CC[C@@H]5[C@](C)(N)C6)n(C)c(=O)c34)c(Cl)c2c1Cl` (racemic) [Example 173, rac-2-((1R,2R,4S)-2-amino-2-methyl-7-azabicyclo[2.2.1]heptan-7-yl)-5-(3,4-dichloro-2-methyl-2H-indazol-5-yl)-3-methyl-3,7-dihydro-4H-pyrrolo[2,3-d]pyrimidin-4-one], for which the IC50 against SHP2 (Table 20) came out at 2.5 nM; in experiment [1] (setting [4]), 0.14 µM.
For `Cn1cc2c(Cl)c(-c3c[nH]c4nc(N5C[C@H]6CC[C@@H](C5)[C@H]6N)n(C)c(=O)c34)ccc2n1` [Example 25, 2-(endo-8-amino-3-azabicyclo[3.2.1]octan-3-yl)-5-(4-chloro-2-methyl-2H-indazol-5-yl)-3-methyl-3,7-dihydro-4H-pyrrolo[2,3-d]pyrimidin-4-one], the IC50 at SHP2 (setting [2]) was found to be 35 nM; in experiment [1] (setting [3]), 0.43 µM.
For `Cn1cc2c(Cl)c(-c3c[nH]c4nc(N5C[C@H]6CC[C@@H](C5)[C@@H]6N)n(C)c(=O)c34)ccc2n1` [Example 24, 2-(exo-8-amino-3-azabicyclo[3.2.1]octan-3-yl)-5-(4-chloro-2-methyl-2H-indazol-5-yl)-3-methyl-3,7-dihydro-4H-pyrrolo[2,3-d]pyrimidin-4-one], the IC50 against SHP2 (setting [2]) worked out at 18 nM; in experiment [1] (setting [3]) it was 0.14 µM.
The like results for `CN[C@@H]1C[C@@H]2CC[C@H]1N2c1nc2[nH]cc(-c3ccc4nc(C)sc4c3Cl)c2c(=O)n1C` [Example 107, 5-(7-chloro-2-methylbenzo[d]thiazol-6-yl)-3-methyl-2-((1R,2R,4S)-2-(methylamino)-7-azabicyclo[2.2.1]heptan-7-yl)-3,7-dihydro-4H-pyrrolo[2,3-d]pyrimidin-4-one] were, in that order, 7 nM and 0.27 µM.
On to `CCn1cc2c(Cl)c(-c3n[nH]c4nc(N5[C@H]6CC[C@@H]5[C@H](NC)C6)n(C)c(=O)c34)ccc2n1` [Example 118, 3-(4-chloro-2-ethyl-2H-indazol-5-yl)-5-methyl-6-((1R,2R,4S)-2-(methylamino)-7-azabicyclo[2.2.1]heptan-7-yl)-1,5-dihydro-4H-pyrazolo[3,4-d]pyrimidin-4-one], for which the figures for the concentration for half-maximal inhibition (IC50) (against SHP2 (setting [2]); in experiment [1] (setting [3])) were 49 nM and 1.1 µM, respectively.
In the case of `Cn1c(N2C3CCCC2CNC3)nc2[nH]nc(-c3ccc4ncsc4c3Cl)c2c1=O` [Example 122, 6-(3,9-diazabicyclo[3.3.1]nonan-9-yl)-3-(7-chlorobenzo[d]thiazol-6-yl)-5-methyl-1,5-dihydro-4H-pyrazolo[3,4-d]pyrimidin-4-one], the IC50 against SHP2 (setting [2]) was 8 nM; in experiment [1] (setting [3]) it was 0.14 µM.
